Source: paper PMC12040169 (PLOS Biology, 2025)

Assay: in vitro
Settings: human, hela cells, % viability

**Q.** Which viability at 28.5 h, 10 µM does the source give for `CCOC(=O)c1cnc2c(C)cc(C)cc2c1NCCN1CCOCC1` [CBK264757] here?
**A.** 109%

**Q.** Which viability at 28.5 h, 10 µM does the source give for `Cc1ccccc1OC(C)C(=O)Nc1ccccc1C(=O)N1CCOCC1` (centres unmarked) [CBK269753] here?
**A.** 103%

**Q.** For `NC(=O)c1ccccc1NC(=O)c1ccc2ccccc2c1` [CBK261171], which viability at 28.5 h, 10 µM is on record?
**A.** 90.8%

**Q.** Which viability at 28.5 h, 10 µM does the source give for `CN1CCOC(CNCc2ccc(OCC(N)=O)cc2)C1` (centres unmarked) [CBK304830] here?
**A.** 102%

**Q.** With `COc1ccc(C(=O)Nc2ccccc2OC2CCNCC2)cc1` [CBK050282T] as the compound, how does the viability at 28.5 h, 10 µM read?
**A.** 85%

**Q.** For `Cc1cc(C)c(NC(=O)CSc2nc(C)c(Cc3ccccc3Cl)c(O)n2)c([N+](=O)[O-])c1` [CBK268693], which viability at 28.5 h, 10 µM is on record?
**A.** 90.4%

**Q.** With `Cc1nn(C)c2ncc(S(=O)(=O)NC(C)c3ccc(F)cc3)cc12` (centres unmarked) [CBK305793] as the compound, how does the viability at 28.5 h, 10 µM read?
**A.** 93.4%

**Q.** For `CCNC(=O)C1(Cc2ccccc2-c2ccccc2)CCN(C(=O)c2cccc(F)c2)CC1` [CBK285689], which viability at 28.5 h, 10 µM is on record?
**A.** 88.7%

**Q.** With `O=C(C1CCC1)N1C2CCC1CC(O)(c1ccc(F)cc1)C2` (centres unmarked) [CBK283547] as the compound, how does the viability at 28.5 h, 10 µM read?
**A.** 92.5%

**Q.** For `Cc1ccc(NCC2CCN(c3cc(=O)n4oc(C)cc4n3)C2)nc1` (centres unmarked) [CBK305827], which viability at 28.5 h, 10 µM is on record?
**A.** 90.1%

**Q.** Which viability at 28.5 h, 10 µM does the source give for `O=S(=O)(c1ccc(C(F)(F)F)cc1)c1ccc2nccc(N3CCNCC3)c2c1` [CBK200016C] here?
**A.** 91.2%

**Q.** For `O=c1[nH]c2n[nH]c(=O)n2c2c(-c3ccccc3)c[nH]c12` [CBK288054], which viability at 28.5 h, 10 µM is on record?
**A.** 84.2%

**Q.** With `Cc1ccc2c(c1)C(=O)NCC1(CCN(C(=O)C3CC3)CC1)O2` [CBK284835] as the compound, how does the viability at 28.5 h, 10 µM read?
**A.** 108%

**Q.** With `CC(C)(CC(=O)O)CC(=O)Nc1ccc2c(c1)ncn2CCc1ccccc1` [CBK299768] as the compound, how does the viability at 28.5 h, 10 µM read?
**A.** 91.7%

**Q.** For `O=C(Nc1cccc(N2CCCC2=O)c1)c1ccccc1Nc1ccccc1` [CBK297729], which viability at 28.5 h, 10 µM is on record?
**A.** 85.8%

**Q.** With `COC(=O)CCC(=O)Nc1snnc1-c1ccc(Cl)cc1` [CBK153241] as the compound, how does the viability at 28.5 h, 10 µM read?
**A.** 99.3%

**Q.** With `O=C(O)CCC(NC(=O)c1ccc(I)cc1)C(=O)O` (centres unmarked) [CBK087614] as the compound, how does the viability at 28.5 h, 10 µM read?
**A.** 95.8%

**Q.** Which viability at 28.5 h, 10 µM does the source give for `O=C1NCC2(CCCN(Cc3ccccc3F)C2)Oc2ccccc21` (centres unmarked) [CBK284901] here?
**A.** 95%

**Q.** Which viability at 28.5 h, 10 µM does the source give for `CCOC(=O)C(C)n1ncc2c3sc(C)cc3n(C)c2c1=O` (centres unmarked) [CBK284157] here?
**A.** 85.9%

**Q.** Which viability at 28.5 h, 10 µM does the source give for `Nc1ccc(C(=O)Nc2ccc(Nc3cc(-c4cccnc4)ncn3)cc2)cc1` [CBK037823] here?
**A.** 94.6%

**Q.** Which viability at 28.5 h, 10 µM does the source give for `O=C(CN1CCOCC1)Nc1ccc(NC(=O)CN2CCOCC2)cc1` [CBK265045] here?
**A.** 95.9%

**Q.** With `CC(C)Nc1nc(NC(C)C)nc(N(C)C(N)=O)n1` [CBK027732] as the compound, how does the viability at 28.5 h, 10 µM read?
**A.** 90.2%

**Q.** Which viability at 28.5 h, 10 µM does the source give for `CCCC(SCC)C(N)=O` (centres unmarked) [CBK020895] here?
**A.** 99.1%

**Q.** With `CCN(CC)CCn1c(NC(=O)c2c(Cl)nc3ccccn23)nc2ccccc21` [CBK298305] as the compound, how does the viability at 28.5 h, 10 µM read?
**A.** 107%

**Q.** For `Cn1c(=O)c2c(ncn2CC(=O)NCCOc2ccccc2)n(C)c1=O` [CBK304654], which viability at 28.5 h, 10 µM is on record?
**A.** 95.5%

**Q.** For `COc1cccc(C(=O)NCCC(=O)N2CCOCC2)c1` [CBK304639], which viability at 28.5 h, 10 µM is on record?
**A.** 104%

**Q.** For `COc1ccc(-c2c(-c3ccc(OCc4cnn(-c5ccccc5)c4)c(C)c3O)n[nH]c2C)cc1` [CBK265006], which viability at 28.5 h, 10 µM is on record?
**A.** 92.5%

**Q.** With `CN1CC[C@@H]2[C@H]1C(=O)NC[C@H](CCC(=O)NCc1cccs1)N2C` [CBK289028] as the compound, how does the viability at 28.5 h, 10 µM read?
**A.** 115%

**Q.** With `O=C(Nc1cccc(I)c1)c1ccc(Oc2ccc(C(=O)Nc3cccc(I)c3)cc2)cc1` [CBK261201] as the compound, how does the viability at 28.5 h, 10 µM read?
**A.** 92.6%

**Q.** For `COc1ccc(C(=O)c2oc3cc(NC(=O)c4cccnc4)ccc3c2C)cc1` [CBK287652], which viability at 28.5 h, 10 µM is on record?
**A.** 85.1%

**Q.** For `CCOc1ccc(N2C(=O)CC(Nc3cc(C(=O)O)ccc3C)C2=O)cc1` (centres unmarked) [CBK296651], which viability at 28.5 h, 10 µM is on record?
**A.** 97.1%

**Q.** With `CCSC1=C(C#N)C(=O)NC(c2ccccc2O)S1` (centres unmarked) [CBK293971] as the compound, how does the viability at 28.5 h, 10 µM read?
**A.** 109%

**Q.** With `CC(=O)Nc1ccc(CN(C)c2c(C)nc3c(OCC4CCCCC4)cccn23)cc1` [CBK147379] as the compound, how does the viability at 28.5 h, 10 µM read?
**A.** 93.5%

**Q.** With `CC(NC(=O)c1ccccc1)C(=O)OCn1nnc2ccccc2c1=O` (centres unmarked) [CBK297001] as the compound, how does the viability at 28.5 h, 10 µM read?
**A.** 92%

Same assay, conditions: human, hela cells, % viability, bulk resorufin, single well

**Q.** For `Cc1cccc(N2C(=O)NC(=O)C(CCc3ccncc3)(CCc3ccncc3)C2=O)c1C` [CBK268705], which viability at 28.5 h, 10 µM is on record?
**A.** 93.9%
